Assays:
Assay type in all cases: in vivo, mouse
old C57b1/6 mice = assay: Transdiaphragmatic pressure (Pdimax) in aged mice; settings: aged C57BL/6 mice, anesthetized, eupnoea, 25 mg/kg p.o. each substance, 90 days
Method: The experiments were performed in old C57b1/6 mice (28-30 weeks). Table 1 discloses the groups of mice used for the experimentation. C57BL/6 mice were bred and naturally aged in a pathogen-free colony. Mice were group-housed six per cage for the treatment regimen and maintained on a 12-hr light-dark schedule with ad libitum access to food and water. All experiments were designed according to the principles of animal use for gerontological research (Miller, R. A., & Nadon, N. L. (2000). Principles of animal use for gerontological research. Journals of Gerontology. Series A, Biological Sciences and Medical Sciences, 55, B117-B123) [table] […] The respiratory muscle function in the study animals was assessed by estimating the Tidal Volume, Minute ventilation, Transdiaphragmatic pressure ([…]) and Respiratory rate. […] Anesthetized mice were monitored continually for temperature, oxygen saturation, and heart rate. Palpebral reflex and pain response were monitored to ensure depth of anaesthesia. […] Spontaneous ventilation was maintained, the abdomen was bound, and Pdi was recorded using solid-state pressure catheters. […] The pressure data were collected using a PowerLab 8/35 data-acquisition system and analyzed using LabChart ([…]., & Mantilla, C. B. (2013). Novel method for transdiaphragmatic pressure measurements in mice. Respiratory Physiology & Neurobiology, 188, 56-59)

Laminin = Laminin ELISA in lung tissue supernatant of aged mice; settings: aged C57BL/6 mice, 25 mg/kg p.o. each substance, 90 days
Method: The experiments were performed in old C57b1/6 mice (28-30 weeks). Table 1 discloses the groups of mice used for the experimentation. C57BL/6 mice were bred and naturally aged in a pathogen-free colony. Mice were group-housed six per cage for the treatment regimen and maintained on a 12-hr light-dark schedule with ad libitum access to food and water. All experiments were designed according to the principles of animal use for gerontological research (Miller, R. A., & Nadon, N. L. (2000). Principles of animal use for gerontological research. Journals of Gerontology. Series A, Biological Sciences and Medical Sciences, 55, B117-B123) [table] The above test substances were administered to the mice for a period of 90 days. Rapamycin was used as a positive control. After 90 days of administration experiments were performed to assess the respiratory muscle function, anatomical changes, cellular senescence and immunological changes. Hyperinflation of the lungs may occur with ageing along with destruction of lung parenchyma or loss of supporting structures within the lung parenchyma (Gillooly M, Lamb D. Airspace size in lungs of lifelong non-smokers: effect of age and sex. Thorax. 1993; 48:39-43). […] Laminin was measured using commercially available ELISA Kit (AbCam ELISA Kit) according to the user's manual provided. […]

AMPK = AMPK ELISA in lung tissue homogenate of aged mice; settings: aged C57BL/6 mice, 25 mg/kg p.o. each substance, 90 days
Method: The experiments were performed in old C57b1/6 mice (28-30 weeks). Table 1 discloses the groups of mice used for the experimentation. C57BL/6 mice were bred and naturally aged in a pathogen-free colony. Mice were group-housed six per cage for the treatment regimen and maintained on a 12-hr light-dark schedule with ad libitum access to food and water. All experiments were designed according to the principles of animal use for gerontological research (Miller, R. A., & Nadon, N. L. (2000). Principles of animal use for gerontological research. Journals of Gerontology. Series A, Biological Sciences and Medical Sciences, 55, B117-B123)
The above test substances were administered to the mice for a period of 90 days. Rapamycin was used as a positive control. After 90 days of administration experiments were performed to assess the respiratory muscle function, anatomical changes, cellular senescence and immunological changes.
Activation of AMPK delays senescence. Abnormal autophagy and aging promote each other, and AMPK is an important regulator of this process. AMPK is involved in the transduction of several aging-related signaling pathways. AMPK intervenes in the development of many age-related diseases.

O=C(/C=C/c1ccc(O)c(O)c1)O[C@H](Cc1ccc(O)c(O)c1)C(=O)O [Rosmarinic acid]
Transdiaphragmatic pressure (Pdimax) (old C57b1/6 mice): increase
expression of laminin (Laminin): increased
AMPK levels (AMPK): increased

Source: patent US20250090614A1, “COMPOSITIONS AND METHODS FOR IMPROVING LUNG FUNCTION” (priority 2023, published 2025)
